# Reference: patent publication US20140241995A1, “MICROPATCH FOR ASSESSING CHEMICAL CONTACT ALLERGY” (priority 2011, published 2014)
# “And” between values parts separate entries of the source, which are not always exact repeats. Equal entries are not always repeated. Where two headings read alike, the source gives them in different places.
# Columns and labels:
# [1] = system: subjects; settings: cited from earlier work
# [2] = system: volunteers with a positive history of contact allergy to p-phenylenediamine; assay: Occluded patch test with p-phenylenediamine in petrolatum at treatment diameters of 8, 4, 3 and 2 mm; format: in vivo, human; settings: 0.1% or 1.0% in petrolatum, under occlusion, diameters 8, 4, 3, 2 mm; reactions at 48 h, 72 h and/or 96 h
# Protocol: 15 volunteers with a positive history of contact allergy to p-phenylenediamine were recruited. Contact allergy to p-phenylenediamine was determined based on their response to a standard 48 h, 8 mm diagnostic patch test with 1% p-phenylenediamine in petrolatum. According to their known sensitivity, these volunteers were tested with either 0.1% or 1.0% p-phenylenediamine in petrolatum, under occlusion, with treatment diameters of 8, 4, 3, and 2 mm. Reactions at 48 h, 72 h and/or 96 h were recorded using the Internationally accepted dermatology grading scale of N, ?+, +, ++. The responses were transposed into numerical values (0-3 respectively) and summated. The summated scores are presented below.
# [3] = system: patch tested subjects; settings: PPD patch testing, cited from earlier work
SMILES,"% sensitised ([1]; Row 1: diameter 3 cm, area 7.1 cm^2, total 1000 μg, 142 μg/cm^2) [%]","% sensitised ([1]; Row 2: diameter 3 cm, area 7.1 cm^2, total 500 μg, 71 μg/cm^2) [%]","% sensitised ([1]; Row 3: diameter 3 cm, area 7.1 cm^2, total 250 μg, 35.4 μg/cm^2) [%]","% sensitised ([1]; Row 4: diameter 3 cm, area 7.1 cm^2, total 125 μg, 17.1 μg/cm^2) [%]","% sensitised ([1]; Row 5: diameter 3 cm, area 7.1 cm^2, total 62.5 μg, 8.8 μg/cm^2) [%]","% sensitised ([1]; Row 6: diameter 1.5 cm, area 1.8 cm^2, total 62.5 μg, 35.4 μg/cm^2)","% sensitised ([1]; Row 7: diameter 2.1 cm, area 3.5 cm^2, total 58 μg, 16.4 μg/cm^2) [%]","% sensitised ([1]; Row 8: diameter 3 cm, area 7.1 cm^2, total 116 μg, 16.4 μg/cm^2) [%]","% sensitised ([1]; Row 9: diameter 4.25 cm, area 14.2 cm^2, total 232 μg, 16.4 μg/cm^2) [%]","% sensitised ([1]; Row 10: l cm paper, area 0.8 cm^2, total 30 μg, 38 μg/cm^2) [%]","% sensitised ([1]; Row 11: 3 mm paper, area 0.08 cm^2, total 3 μg, 38 μg/cm^2) [%]",impact of reduced patch test diameter on the reaction intensity observed [2],rate of sensitization caused by the test ([3]; Dawe et al. 2004),incidence of active sensitization ([3]; Devos and van der Valk 2001) [%]
"O=[N+]([O-])c1ccc(Cl)c([N+](=O)[O-])c1 [DNCB, 2,4-dinitrochlorobenzene]",100,100,83,63,8,85% and 86%,55,50,66,93,26,,,
"Nc1ccc(N)cc1 [PPD, para-phenylenediamine]",,,,,,,,,,,,no detectable impact,less than 0.2%,1.5
